{"source": "PubChem BioAssay AID200", "about": "(DTP/NCI, 2004)", "system": "B6C3F1 mice, B16 melanoma ip, median survival T/C", "assay": "NCI In Vivo Anticancer Drug Screen. Data for tumor model B16 Melanoma (intraperitoneal) in B6C3F1 mice", "settings": "endpoint: median survival time, higher = longer survival", "outline": "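Tumor-bearing mice received test compound; a separate group got vehicle only. Survival was then compared, with results reported as treated over control.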", "key": {"[1]": {"settings": "dose: 1.5 mg/kg/injection, schedule: Q01DX009 (ip), vehicle: water"}, "[2]": {"settings": "dose: 12.5 mg/kg/injection, schedule: Q01DX009 (ip), vehicle: saline with Tween-80"}, "[3]": {"settings": "dose: 25.0 mg/kg/injection, schedule: Q01DX009 (ip), vehicle: saline with Tween-80"}, "[4]": {"settings": "dose: 50.0 mg/kg/injection, schedule: Q01DX009 (ip), vehicle: saline with Tween-80"}, "[5]": {"settings": "dose: 100.0 mg/kg/injection, schedule: Q01DX009 (ip), vehicle: Klucel (hydroxypropylcellulose) (HPC)"}, "[6]": {"settings": "dose: 100.0 mg/kg/injection, schedule: Q01DX009 (ip), vehicle: saline with Tween-80"}, "[7]": {"settings": "dose: 25.0 mg/kg/injection, schedule: Q01DX009 (ip), vehicle: saline"}, "[8]": {"settings": "dose: 50.0 mg/kg/injection, schedule: Q01DX009 (ip), vehicle: saline"}, "[9]": {"settings": "dose: 100.0 mg/kg/injection, schedule: Q01DX009 (ip), vehicle: saline"}, "[10]": {"settings": "dose: 200.0 mg/kg/injection, schedule: Q01DX009 (ip), vehicle: saline"}, "[11]": {"settings": "dose: 400.0 mg/kg/injection, schedule: Q01DX009 (ip), vehicle: saline"}, "[12]": {"settings": "dose: 400.0 mg/kg/injection, schedule: Q01DX009 (ip), vehicle: Klucel (hydroxypropylcellulose) (HPC)"}}, "note": "Values joined by “and” are separate entries in the source; they are usually repeats but may differ in a detail not shown here. Equal values may be shown once. Inconclusive results and toxic doses are left out. Where a SMILES comes first, the peptide text is derived from it. [ ]: non-standard residue; d: D form. Tyr(3,5-I2) = N[CH](Cc1cc(I)c(O)c(I)c1)C(=O)O", "data": [{"smiles": "COc1cccc2c1C(=O)c1c(O)c3c(c(O)c1C2=O)C[C@](O)(C(=O)CO)CC3OC1CC(N)C(OC2CCCCO2)C(C)O1", "note": "(stereo partly specified)", "values": [{"measurement": "T/C", "setting": "[1]", "result": "382 % of control"}, {"measurement": "T/C", "setting": "dose: 1.56 mg/kg/injection, schedule: Q01DX001 (ip), vehicle: water", "result": "172 % of control"}, {"measurement": "T/C", "setting": "dose: 3.12 mg/kg/injection, schedule: Q01DX001 (ip), vehicle: water", "result": "206 % of control and 218 % of control"}, {"measurement": "T/C", "setting": "dose: 6.25 mg/kg/injection, schedule: Q01DX001 (ip), vehicle: water", "result": "222 % of control and 317 % of control"}, {"measurement": "T/C", "setting": "dose: 12.5 mg/kg/injection, schedule: Q01DX001 (ip), vehicle: water", "result": "229 % of control and 264 % of control"}]}, {"smiles": "COc1ccc2c(c1)n([O-])c1ccccc1[n+]2=O", "values": [{"measurement": "T/C", "setting": "[2]", "result": "103 % of control"}, {"measurement": "T/C", "setting": "dose: 18.0 mg/kg/injection, schedule: Q01DX009 (ip), vehicle: saline with Tween-80", "result": "121 % of control"}, {"measurement": "T/C", "setting": "[3]", "result": "108 % of control"}, {"measurement": "T/C", "setting": "dose: 30.0 mg/kg/injection, schedule: Q01DX009 (ip), vehicle: saline with Tween-80", "result": "101 % of control and 103 % of control"}, {"measurement": "T/C", "setting": "[4]", "result": "113 % of control and 114 % of control"}, {"measurement": "T/C", "setting": "dose: 83.33 mg/kg/injection, schedule: Q01DX009 (ip), vehicle: saline with Tween-80", "result": "108 % of control and 115 % of control"}]}, {"smiles": "CC1OC2CC(=O)OC2C2=C1C(=O)c1cc(-c3cc(O)c4c(c3)C(=O)C3=C(C4=O)C4OC(=O)CC4OC3C)cc(O)c1C2=O", "note": "(stereo unspecified)", "values": [{"measurement": "T/C", "setting": "dose: 0.5 mg/kg/injection, schedule: Q01DX009 (ip), vehicle: other", "result": "90 % of control"}]}, {"smiles": "CC(C)(C)OC(=O)NCCCCC(NC(=O)OCc1ccccc1)C(=O)O", "note": "(stereo unspecified)", "values": [{"measurement": "T/C", "setting": "dose: 25.0 mg/kg/injection, schedule: Q01DX009 (ip), vehicle: Klucel (hydroxypropylcellulose) (HPC)", "result": "109 % of control"}, {"measurement": "T/C", "setting": "dose: 50.0 mg/kg/injection, schedule: Q01DX009 (ip), vehicle: Klucel (hydroxypropylcellulose) (HPC)", "result": "94 % of control"}, {"measurement": "T/C", "setting": "[5]", "result": "98 % of control"}]}, {"smiles": "O=[n+]1c2ccccc2n([O-])c2cc(Cl)ccc21", "values": [{"measurement": "T/C", "setting": "[2]", "result": "111 % of control"}, {"measurement": "T/C", "setting": "[3]", "result": "109 % of control"}, {"measurement": "T/C", "setting": "[4]", "result": "116 % of control"}, {"measurement": "T/C", "setting": "[6]", "result": "124 % of control"}]}, {"smiles": "NCCc1cc(O)c(O)c(O)c1", "values": [{"measurement": "T/C", "setting": "dose: 12.5 mg/kg/injection, schedule: Q01DX009 (ip), vehicle: saline", "result": "106 % of control"}, {"measurement": "T/C", "setting": "[7]", "result": "105 % of control"}, {"measurement": "T/C", "setting": "[8]", "result": "101 % of control"}, {"measurement": "T/C", "setting": "[9]", "result": "98 % of control"}, {"measurement": "T/C", "setting": "[10]", "result": "106 % of control"}, {"measurement": "T/C", "setting": "[11]", "result": "96 % of control"}]}, {"smiles": "CCC(C)C(NC(=O)OC(C)(C)C)C(=O)O", "note": "(stereo unspecified)", "values": [{"measurement": "T/C", "setting": "[5]", "result": "99 % of control"}, {"measurement": "T/C", "setting": "dose: 200.0 mg/kg/injection, schedule: Q01DX009 (ip), vehicle: Klucel (hydroxypropylcellulose) (HPC)", "result": "92 % of control"}, {"measurement": "T/C", "setting": "[12]", "result": "87 % of control"}]}, {"smiles": "CCOC(=O)NC(N)=O", "values": [{"measurement": "T/C", "setting": "[4]", "result": "101 % of control"}, {"measurement": "T/C", "setting": "[6]", "result": "117 % of control"}, {"measurement": "T/C", "setting": "dose: 200.0 mg/kg/injection, schedule: Q01DX009 (ip), vehicle: saline with Tween-80", "result": "102 % of control"}, {"measurement": "T/C", "setting": "dose: 400.0 mg/kg/injection, schedule: Q01DX009 (ip), vehicle: saline with Tween-80", "result": "105 % of control"}]}, {"smiles": "NC(=O)CCC(N)C(=O)O", "note": "(stereo unspecified)", "values": [{"measurement": "T/C", "setting": "[7]", "result": "105 % of control"}, {"measurement": "T/C", "setting": "[8]", "result": "108 % of control"}, {"measurement": "T/C", "setting": "[9]", "result": "103 % of control"}, {"measurement": "T/C", "setting": "[10]", "result": "100 % of control"}, {"measurement": "T/C", "setting": "[11]", "result": "108 % of control"}]}, {"smiles": "CSCCC(NC(=O)c1ccccc1)C(=O)O", "note": "(stereo unspecified)", "values": [{"measurement": "T/C", "setting": "[9]", "result": "93 % of control"}]}, {"smiles": "COC(COC(=O)N1CCN(C=O)CC1)C1=C(N2CC2)C(=O)C(C)=C(N2CC2)C1=O", "note": "(stereo unspecified)", "values": [{"measurement": "T/C", "setting": "dose: 1.5 mg/kg/injection, schedule: Q01DX009 (ip), vehicle: saline", "result": "160 % of control and 194 % of control"}, {"measurement": "T/C", "setting": "dose: 3.0 mg/kg/injection, schedule: Q01DX009 (ip), vehicle: saline", "result": "173 % of control and 234 % of control"}, {"measurement": "T/C", "setting": "dose: 6.0 mg/kg/injection, schedule: Q01DX009 (ip), vehicle: saline", "result": "254 % of control"}]}, {"smiles": "COc1cccc2c1C(=O)c1c(O)c3c(c(O)c1C2=O)C[C@@](O)(C(=O)CO)C[C@@H]3OC1CC(N)CC(C)O1", "note": "(stereo partly specified)", "values": [{"measurement": "T/C", "setting": "dose: 0.18 mg/kg/injection, schedule: Q01DX009 (ip), vehicle: water", "result": "174 % of control"}, {"measurement": "T/C", "setting": "dose: 0.37 mg/kg/injection, schedule: Q01DX009 (ip), vehicle: water", "result": "231 % of control"}, {"measurement": "T/C", "setting": "dose: 0.38 mg/kg/injection, schedule: Q01DX009 (ip), vehicle: water", "result": "175 % of control"}, {"measurement": "T/C", "setting": "dose: 0.75 mg/kg/injection, schedule: Q01DX009 (ip), vehicle: water", "result": "187 % of control and 238 % of control"}, {"measurement": "T/C", "setting": "[1]", "result": "181 % of control and 187 % of control"}]}, {"smiles": "CC(C)CCCCCCCCCCCCC(=O)NCC(=O)NC1C(C)OC(Nc2ncnc3nc[nH]c23)C(O)C1O", "note": "(stereo unspecified)", "values": [{"measurement": "T/C", "setting": "dose: 0.25 mg/kg/injection, schedule: Q01DX008 (ip), vehicle: distilled water + Tween-80", "result": "95 % of control"}, {"measurement": "T/C", "setting": "dose: 0.25 mg/kg/injection, schedule: Q01DX009 (ip), vehicle: distilled water + Tween-80", "result": "112 % of control"}, {"measurement": "T/C", "setting": "dose: 0.5 mg/kg/injection, schedule: Q01DX008 (ip), vehicle: distilled water + Tween-80", "result": "95 % of control"}, {"measurement": "T/C", "setting": "dose: 0.5 mg/kg/injection, schedule: Q01DX009 (ip), vehicle: distilled water + Tween-80", "result": "112 % of control"}, {"measurement": "T/C", "setting": "dose: 1.0 mg/kg/injection, schedule: Q01DX008 (ip), vehicle: distilled water + Tween-80", "result": "98 % of control"}, {"measurement": "T/C", "setting": "dose: 2.0 mg/kg/injection, schedule: Q01DX008 (ip), vehicle: distilled water + Tween-80", "result": "111 % of control"}]}, {"smiles": "CC(=O)NC(Cc1ccccc1)C(=O)NC(Cc1cc(I)c(O)c(I)c1)C(=O)O", "note": "(stereo unspecified) (Ac-Phe-[Tyr(3,5-I2)]-OH; configuration not given here)", "values": [{"measurement": "T/C", "setting": "[12]", "result": "89 % of control"}]}, {"smiles": "CCCCCCCCCCCCCCCCN(CC)CC", "values": [{"measurement": "T/C", "setting": "dose: 2.5 mg/kg/injection, schedule: Q01DX009 (ip), vehicle: saline", "result": "99 % of control"}, {"measurement": "T/C", "setting": "dose: 5.0 mg/kg/injection, schedule: Q01DX009 (ip), vehicle: saline", "result": "97 % of control"}, {"measurement": "T/C", "setting": "dose: 10.0 mg/kg/injection, schedule: Q01DX009 (ip), vehicle: saline", "result": "90 % of control"}]}]}
